Experimental data reported in EP0923292B1, “IMPROVED METHOD FOR SYSTEMIC ADMINISTRATION OF 2,4-DIENOIC ACID-TYPE INSECTICIDES TO TERRESTRIAL MAMMALS” (priority 1996, dated 1998).

System: C. felis
Test: Systemic flea ovicidal activity upon oral administration to host dogs (Example 2)
Format: in vivo, C. felis (host: dogs)
Details: for Percent Inhibition of Flea Egg Hatching: relative to placebo
Excerpt: Nine random-bred, clinically healthy dogs, five male and four female, ranging in weight from 7.5 to 14.9 kg and in age from 7 months to 68 months, and having hair coats ranging from fine to coarse and from 1.0 to 2.5 cm in length, were used. The dogs were assigned to three treatment groups based on weight, one group designated to receive a placebo (gelatin capsules containing no (S)-methoprene), the second group to receive gelatin capsules individually prepared to contain the appropriate quantity of (S)-methoprene such that one capsule would provide 25.0 mg (S)-methoprene per kg of the body weight of a particular dog, and the third group to receive gelatin capsules individually prepared to provide 50.0 mg/kg of body weight per dog. […]
Eleven days before the administration of the first gelatin capsule (i.e., on Day -11), and weekly thereafter through Day 59, each dog was infested with approximately 200 one-to two-week-old, unfed adult C. fells fleas of mixed sex ratio. Each dog was restrained for about one minute while the fleas were released along the dorsum.
[…] Prior to egg collection, the cages in which the dogs were housed and the collection trays were rinsed with isopropyl alcohol, and the water was turned off, feed bowls and resting pads were removed from each cage. Trays covered with a screen made of […] hardware cloth were placed under the cages, and heavy white butcher paper was placed under the hardware cloth. After an interval of 14-16 hours, the paper was swept and the debris and flea eggs thus collected were transferred to a metal pan. The debris was separated from the eggs by sieving, and the eggs were placed in half-pint plastic cartons, then transferred to 10 cm x 10 cm glass plates. Using a dissecting microscope and a fine tipped artist brush, 100 flea eggs were counted from the sweepings of each dog and separated into four replicates of 25 eggs each. The eggs were placed in a 15 mm x 60 mm disposable plastic petri dish and incubated at 79-80°F and 80% relative humidity. Seventy two hours after collection, larvae emergence was determined. Both dead and live larvae were counted to determine the ovicidal effect of the treatment.
The results are listed in Table II below, where each entry represents the percent inhibition of hatching of fleas from the flea eggs relative to the placebo group, and each entry is the average of all replicates and of all three dogs in the particular treatment group.

COC(C)(C)CCC[C@H](C)C/C=C/C(C)=C/C(=O)OC(C)C [(S)-Methoprene, 1-isopropyl (E,E)-11-methoxy-3,7,11-trimethyl dodecadi-2,4-enoate]
duration of ovicidal efficacy (administered systemically to host dogs at 50 mg/kg and 25 mg/kg): two weeks or more | time effective in controlling fleas (following a single oral dose of 50 mg/kg to dogs): 14 days | Percent Inhibition of Flea Egg Hatching (oral 25 mg/kg once on Day 0 and once on Day 33, 1 day after initial administration): 92.3% | Percent Inhibition of Flea Egg Hatching (oral 25 mg/kg once on Day 0 and once on Day 33, 2 days after initial administration): 80.4% | Percent Inhibition of Flea Egg Hatching (oral 25 mg/kg once on Day 0 and once on Day 33, 4 days after initial administration): 100.0% | Percent Inhibition of Flea Egg Hatching (oral 25 mg/kg once on Day 0 and once on Day 33, 7 days after initial administration): 44.4% | Percent Inhibition of Flea Egg Hatching (oral 25 mg/kg once on Day 0 and once on Day 33, 14 days after initial administration): 75.1% | Percent Inhibition of Flea Egg Hatching (oral 25 mg/kg once on Day 0 and once on Day 33, 21 days after initial administration): 79.0% | Percent Inhibition of Flea Egg Hatching (oral 25 mg/kg once on Day 0 and once on Day 33, 28 days after initial administration): 39.9% | Percent Inhibition of Flea Egg Hatching (oral 25 mg/kg once on Day 0 and once on Day 33, 35 days after initial administration): 100.0% | Percent Inhibition of Flea Egg Hatching (oral 25 mg/kg once on Day 0 and once on Day 33, 42 days after initial administration): 95.9% | Percent Inhibition of Flea Egg Hatching (oral 25 mg/kg once on Day 0 and once on Day 33, 49 days after initial administration): 11.3% | Percent Inhibition of Flea Egg Hatching (oral 25 mg/kg once on Day 0 and once on Day 33, 55 days after initial administration): 12.6% | Percent Inhibition of Flea Egg Hatching (oral 25 mg/kg once on Day 0 and once on Day 33, 63 days after initial administration): 14.0% | Percent Inhibition of Flea Egg Hatching (oral 50 mg/kg once on Day 0 and once on Day 33, 1 day after initial administration): 98.9% | Percent Inhibition of Flea Egg Hatching (oral 50 mg/kg once on Day 0 and once on Day 33, 2 days after initial administration): 100.0% | Percent Inhibition of Flea Egg Hatching (oral 50 mg/kg once on Day 0 and once on Day 33, 4 days after initial administration): 100.0% | Percent Inhibition of Flea Egg Hatching (oral 50 mg/kg once on Day 0 and once on Day 33, 7 days after initial administration): 97.5% | Percent Inhibition of Flea Egg Hatching (oral 50 mg/kg once on Day 0 and once on Day 33, 14 days after initial administration): 97.9% | Percent Inhibition of Flea Egg Hatching (oral 50 mg/kg once on Day 0 and once on Day 33, 21 days after initial administration): 73.0% | Percent Inhibition of Flea Egg Hatching (oral 50 mg/kg once on Day 0 and once on Day 33, 28 days after initial administration): 50.8% | Percent Inhibition of Flea Egg Hatching (oral 50 mg/kg once on Day 0 and once on Day 33, 35 days after initial administration): 100.0% | Percent Inhibition of Flea Egg Hatching (oral 50 mg/kg once on Day 0 and once on Day 33, 42 days after initial administration): 100.0% | Percent Inhibition of Flea Egg Hatching (oral 50 mg/kg once on Day 0 and once on Day 33, 49 days after initial administration): 51.5% | Percent Inhibition of Flea Egg Hatching (oral 50 mg/kg once on Day 0 and once on Day 33, 55 days after initial administration): 31.9% | Percent Inhibition of Flea Egg Hatching (oral 50 mg/kg once on Day 0 and once on Day 33, 63 days after initial administration): 16.1%
